Each structure is given as a SMILES string. Where only a bound is given, the exact number is not on record here.

For data set [1], the target named is T1, Disintegrin and metalloproteinase domain-containing protein 17 (Homo sapiens, UniProt P78536). Kind of data set: Inhibition of TACE by cell based assay.
Data set [2] has as its target T1, Disintegrin and metalloproteinase domain-containing protein 17. Kind of data set: Inhibition of TACE.
Data set [3] can be described thus: AUC in Sprague-Dawley rat at 10 mg/kg, po measured within 6 hrs after post-dosing by LC/MS/MS analysis. The data set is classed as ADME, organism-based. More on the design: time < 6 hr, dose 10 mg/kg, route oral. Particulars: plasma.
Data set [4] in a line: Plasma concentration in Sprague-Dawley rat at 10 mg/kg, po measured after 6 hrs by LC/MS/MS analysis. Type of data set: ADME, organism-based. More on the design: dose 10 mg/kg, route oral.
The target of data set [5] is T2, Interstitial collagenase (Homo sapiens, UniProt P03956).
T2 sequence (P03956 whole entry): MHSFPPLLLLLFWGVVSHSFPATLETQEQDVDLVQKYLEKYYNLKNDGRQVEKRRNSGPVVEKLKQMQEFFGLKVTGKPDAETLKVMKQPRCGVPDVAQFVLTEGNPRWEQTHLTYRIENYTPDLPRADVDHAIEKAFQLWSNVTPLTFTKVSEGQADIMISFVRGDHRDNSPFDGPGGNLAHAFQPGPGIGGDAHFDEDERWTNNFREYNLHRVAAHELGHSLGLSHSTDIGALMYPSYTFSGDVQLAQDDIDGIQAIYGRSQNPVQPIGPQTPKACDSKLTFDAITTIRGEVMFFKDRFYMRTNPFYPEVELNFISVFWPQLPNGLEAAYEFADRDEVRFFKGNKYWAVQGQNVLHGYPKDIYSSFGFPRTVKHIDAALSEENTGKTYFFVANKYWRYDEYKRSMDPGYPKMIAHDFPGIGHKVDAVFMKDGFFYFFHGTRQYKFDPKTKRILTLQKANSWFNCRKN
Kind of data set: Inhibition of MMP1.

T1 sequence (P78536 whole entry, the tested form may be a part): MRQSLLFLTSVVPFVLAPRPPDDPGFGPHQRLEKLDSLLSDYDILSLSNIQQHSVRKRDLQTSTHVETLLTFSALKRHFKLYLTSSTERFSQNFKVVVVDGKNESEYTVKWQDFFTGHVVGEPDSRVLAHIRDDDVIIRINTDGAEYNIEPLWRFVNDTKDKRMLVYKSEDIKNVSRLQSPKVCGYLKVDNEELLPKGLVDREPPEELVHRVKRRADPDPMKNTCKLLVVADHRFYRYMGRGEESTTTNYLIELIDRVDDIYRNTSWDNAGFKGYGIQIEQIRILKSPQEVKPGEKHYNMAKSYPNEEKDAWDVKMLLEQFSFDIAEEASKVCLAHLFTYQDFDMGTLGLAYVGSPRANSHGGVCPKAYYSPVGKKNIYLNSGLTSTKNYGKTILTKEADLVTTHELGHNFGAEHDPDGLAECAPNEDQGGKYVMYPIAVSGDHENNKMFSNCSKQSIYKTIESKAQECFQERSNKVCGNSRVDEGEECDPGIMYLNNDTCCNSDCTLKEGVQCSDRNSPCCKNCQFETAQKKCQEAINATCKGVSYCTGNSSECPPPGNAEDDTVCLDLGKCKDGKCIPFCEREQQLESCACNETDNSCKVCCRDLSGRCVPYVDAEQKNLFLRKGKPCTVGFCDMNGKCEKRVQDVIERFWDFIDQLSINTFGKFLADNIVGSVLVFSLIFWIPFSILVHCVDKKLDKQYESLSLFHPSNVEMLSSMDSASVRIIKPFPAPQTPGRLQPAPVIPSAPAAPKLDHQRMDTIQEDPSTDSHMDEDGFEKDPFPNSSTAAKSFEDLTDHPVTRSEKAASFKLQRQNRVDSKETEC

One may read the IC50 as the midpoint of a concentration-inhibition curve. Higher therefore signals weaker potency in that assay. Compound `CNc1nc([C@H]2CCCN2C(=O)[C@H](O)[C@@H](O)C(=O)N[C@H](C)c2ccc(-n3cccn3)cc2)c(S(C)(=O)=O)s1` returned an IC50 in data set [1] of 0.72 µM.
Usually Ki stands for the equilibrium dissociation constant of an inhibitor or competing ligand from its target. Low readings indicate higher affinity, high ones lower affinity. Usually AUC stands for the area under the concentration-time curve, a measure of exposure. A high value points to high exposure. As for `C[C@@H](NC(=O)[C@H](O)[C@@H](O)C(=O)N1CCC[C@@H]1c1cccc(Cl)c1)c1ccc(-n2cccn2)cc1`, the Ki in data set [2] was 0.0008 µM; in data set [5] it was more than 100 µM. In data set [3], this compound showed an AUC at 6 h of 2.95 µM·h. In data set [4], the concentration at 6 h turned out to be 0.096 µM.
In data set [2], `C[C@@H](NC(=O)[C@H](O)[C@@H](O)C(=O)N1CCC[C@]1(C)c1cccc(Cl)c1)c1ccc(-n2cccn2)cc1` gave a Ki of 0.0004 µM. This compound also gave an AUC at 6 h in data set [3] of 1.47 µM·h.
For the compound `C[C@@H](NC(=O)[C@H](O)[C@@H](O)C(=O)N1CC=C[C@@H]1c1cccc(Cl)c1)c1ccc(-n2cccn2)cc1`, the affinity in data set [2] corresponds to a Ki of 0.0005 µM. Besides, the AUC at 6 h in data set [3] turned out to be 0.461 µM·h.
In turn, `COc1cc2c(cc1OC)[C@H](c1ccc(Cl)cc1)N(C(=O)[C@H](O)[C@@H](O)C(=O)N[C@H](C)c1ccc(-n3cccn3)cc1)CC2` had a Ki in data set [2] of 0.0026 µM.
In data set [2], `COc1cc2c(cc1OC)[C@H](c1ccccc1)CN(C(=O)[C@H](O)[C@@H](O)C(=O)N[C@H](C)c1ccc(-n3cccn3)cc1)CC2` yielded a Ki of 0.038 µM.
Consider `C[C@@H](NC(=O)[C@H](O)[C@@H](O)C(=O)N1CCC[C@@H]1c1cc[nH]n1)c1ccc(-n2cccn2)cc1`, for which affinity in data set [2] was put at a Ki of 0.005 µM. For the same compound, in data set [3], the AUC at 6 h stood at 0.578 µM·h.
In turn, `C[C@@H](NC(=O)[C@H](O)[C@@H](O)C(=O)N1CCC[C@@H]1c1ccn(C)n1)c1ccc(-n2cccn2)cc1` came in with a Ki in data set [2] of 0.004 µM. Moreover, in data set [3], the AUC at 6 h turned out to be 2.92 µM·h. This compound also returned a concentration at 6 h in data set [4] of 0.086 µM.
Turning to `C[C@@H](NC(=O)[C@H](O)[C@@H](O)C(=O)N1CCC[C@@H]1c1nccs1)c1ccc(-n2cccn2)cc1`, the Ki in data set [2] was found to be 0.01 µM.
On the same count and under the same terms, in the case of `Cc1nc([C@H]2CCCN2C(=O)[C@H](O)[C@@H](O)C(=O)N[C@H](C)c2ccc(-n3cccn3)cc2)cs1` it was 0.01 µM.
For the compound `C[C@@H](NC(=O)[C@H](O)[C@@H](O)C(=O)N1CCC[C@@H]1c1csc(N)n1)c1ccc(-n2cccn2)cc1`, the Ki in data set [2] worked out at 0.006 µM. In data set [3], this compound registered an AUC at 6 h of 2.28 µM·h. Also, the concentration at 6 h in data set [4] was found to be 0.247 µM. This compound displayed a half-inhibitory concentration (IC50) in data set [1] of 4.29 µM.
The matching figures for `CNc1nc([C@H]2CCCN2C(=O)[C@H](O)[C@@H](O)C(=O)N[C@H](C)c2ccc(-n3cccn3)cc2)cs1`: 0.007 µM, 30.7 µM·h, 2.54 µM and 5.8 µM.
In the case of `CCNc1nc([C@H]2CCCN2C(=O)[C@H](O)[C@@H](O)C(=O)N[C@H](C)c2ccc(-n3cccn3)cc2)cs1`, the affinity in data set [2] corresponds to a Ki of 0.007 µM. The AUC at 6 h in data set [3] was determined as 52 µM·h. This compound also yielded a concentration at 6 h in data set [4] of 5.97 µM. Also, the IC50 in data set [1] amounted to 5.11 µM.
In the same order, the values of `CCCNc1nc([C@H]2CCCN2C(=O)[C@H](O)[C@@H](O)C(=O)N[C@H](C)c2ccc(-n3cccn3)cc2)cs1` are 0.004 µM, 48.3 µM·h, 5.4 µM and 4.48 µM.
With `CC(C)Nc1nc([C@H]2CCCN2C(=O)[C@H](O)[C@@H](O)C(=O)N[C@H](C)c2ccc(-n3cccn3)cc2)cs1`, in data set [2], the Ki was 0.017 µM. For the same compound, the AUC at 6 h in data set [3] worked out at 115 µM·h. In addition, the concentration at 6 h in data set [4] is 12.3 µM. For the same compound, the IC50 in data set [1] was found to be 6.68 µM.
The matching figures for `C[C@@H](NC(=O)[C@H](O)[C@@H](O)C(=O)N1CCC[C@@H]1c1csc(NC2CCC2)n1)c1ccc(-n2cccn2)cc1`: 0.004 µM, 31.4 µM·h, 3.54 µM and 2.15 µM.
On to `C[C@@H](NC(=O)[C@H](O)[C@@H](O)C(=O)N1CCC[C@@H]1c1csc(Nc2ccccc2F)n1)c1ccc(-n2cccn2)cc1`, for which the affinity in data set [2], expressed as Ki, was 0.001 µM. The compound further displayed an AUC at 6 h in data set [3] of 0.13 µM·h. Besides, in data set [1], half-maximal inhibition (IC50) was put at 1.14 µM.
In data set [2], `C[C@@H](NC(=O)[C@H](O)[C@@H](O)C(=O)N1CCC[C@@H]1c1csc(Nc2cccnc2)n1)c1ccc(-n2cccn2)cc1` displayed an inhibition constant Ki of 0.002 µM. In data set [1], the half-maximal inhibitory concentration (IC50) stood at 5.55 µM.
In data set [2], `C[C@@H](NC(=O)[C@H](O)[C@@H](O)C(=O)N1CCC[C@@H]1c1csc(N(C)C)n1)c1ccc(-n2cccn2)cc1` registered a Ki of 0.065 µM.
On to `C[C@@H](NC(=O)[C@H](O)[C@@H](O)C(=O)N1CCC[C@@H]1c1csc(N2CCCCC2)n1)c1ccc(-n2cccn2)cc1`, for which the Ki in data set [2] worked out at 0.039 µM. In data set [3], this compound displayed an AUC at 6 h of 1.96 µM·h.
In the case of `CNc1nc([C@H]2CCCN2C(=O)[C@H](O)[C@@H](O)C(=O)N[C@H](C)c2ccc(-n3cccn3)cc2)c(C)s1`, the Ki in data set [2] was determined as 0.002 µM. In data set [3], this compound gave an AUC at 6 h of 5.44 µM·h. This compound gave an IC50 in data set [1] of 2.22 µM.
The matching figures for `CNc1nc([C@H]2CCCN2C(=O)[C@H](O)[C@@H](O)C(=O)N[C@H](C)c2ccc(-n3cccn3)cc2)c(C2CC2)s1`: 0.002 µM, 11.4 µM·h and 2.57 µM.
`CNc1nc([C@H]2CCCN2C(=O)[C@H](O)[C@@H](O)C(=O)N[C@H](C)c2ccc(-n3cccn3)cc2)c(-c2ccc(F)cc2)s1` returned a Ki in data set [2] of 0.001 µM. In addition, the IC50 in data set [1] was determined as 3.24 µM.
`CNc1nc([C@H]2CCCN2C(=O)[C@H](O)[C@@H](O)C(=O)N[C@H](C)c2ccc(-n3cccn3)cc2)c(C#N)s1` showed a Ki in data set [2] of 0.002 µM. The AUC at 6 h in data set [3] is 0.154 µM·h. In data set [1], it took 3.04 µM to reach half-maximal inhibition (IC50).
Regarding `CCNc1nc([C@H]2C[C@@H](C)CN2C(=O)[C@H](O)[C@@H](O)C(=O)N[C@H](C)c2ccc(-n3cccn3)cc2)cs1`, the Ki in data set [2] was determined as 0.006 µM. Further, the exposure (AUC) at 6 h in data set [3] was 5.62 µM·h. The compound also gave an IC50 in data set [1] of 4.04 µM.
In the case of `CNc1nc([C@H]2CC(F)(F)CN2C(=O)[C@H](O)[C@@H](O)C(=O)N[C@H](C)c2ccc(-n3cccn3)cc2)cs1`, the Ki in data set [2] is 0.004 µM. The same compound displayed an AUC at 6 h in data set [3] of 1.42 µM·h. Besides, the IC50 in data set [1] was found to be 2.77 µM.
In data set [2], `CNc1nc([C@H]2C=CCN2C(=O)[C@H](O)[C@@H](O)C(=O)N[C@H](C)c2ccc(-n3cccn3)cc2)cs1` came in with an inhibition constant Ki of 0.0006 µM. The same compound registered an AUC at 6 h in data set [3] of 1.81 µM·h. The same compound showed an IC50 in data set [1] of 1.34 µM.
The matching figures for `CNc1nc([C@H]2C[C@H]3C[C@H]3N2C(=O)[C@H](O)[C@@H](O)C(=O)N[C@H](C)c2ccc(-n3cccn3)cc2)cs1`: 0.001 µM, 0.925 µM·h and 0.707 µM.
`CNc1nc([C@H]2C[C@@H]3C[C@@H]3N2C(=O)[C@H](O)[C@@H](O)C(=O)N[C@H](C)c2ccc(-n3cccn3)cc2)cs1` displayed a Ki in data set [2] of 0.531 µM.
In turn, `CNc1nc([C@H]2c3cc(F)ccc3CN2C(=O)[C@H](O)[C@@H](O)C(=O)N[C@H](C)c2ccc(-n3cccn3)cc2)cs1` showed a Ki in data set [2] of 0.016 µM. In data set [3], this compound gave an AUC at 6 h of 0.237 µM·h. This compound also showed an IC50 in data set [1] of 0.384 µM.
`CNc1nc([C@H]2c3ccc(F)cc3CN2C(=O)[C@H](O)[C@@H](O)C(=O)N[C@H](C)c2ccc(-n3cccn3)cc2)cs1`: the affinity in data set [2] corresponds to a Ki of 0.002 µM. The compound also had an IC50 in data set [1] of 0.288 µM.
In the case of `CCNc1nc([C@H]2c3cnc(N)nc3CN2C(=O)[C@H](O)[C@@H](O)C(=O)N[C@H](C)c2ccc(-n3cccn3)cc2)cs1`, affinity in data set [2] was put at a Ki of 0.0005 µM. Moreover, half-maximal inhibition in data set [1] (IC50) was put at 0.257 µM.
Compound `C[C@@H](NC(=O)[C@H](O)[C@@H](O)C(=O)N1CC[C@H](O)C1c1cccc(Cl)c1)c1ccc(-n2cccn2)cc1` (mixture of isomers) gave a Ki in data set [2] of 0.0067 µM. In data set [3], the AUC at 6 h was 4.76 µM·h.
The matching figures for `C[C@@H](NC(=O)[C@H](O)[C@@H](O)C(=O)N1C[C@H](O)CC1c1cccc(Cl)c1)c1ccc(-n2cccn2)cc1` (mixture of isomers): 0.0076 µM and 3.91 µM·h.
Take `C[C@@H](NC(=O)[C@H](O)[C@@H](O)C(=O)N1CCCCC1c1cccc(Cl)c1)c1ccc(-n2cccn2)cc1` (mixture of isomers): affinity in data set [2] was put at a Ki of 0.087 µM.
On the same count and under the same terms, under `C[C@@H](NC(=O)[C@H](O)[C@@H](O)C(=O)N1CCCCC1c1ccc(Cl)cc1)c1ccc(-n2cccn2)cc1` (mixture of isomers) stands 0.022 µM; under `C[C@@H](NC(=O)[C@H](O)[C@@H](O)C(=O)N1CCCCC1c1ccccc1)c1ccc(-n2cccn2)cc1` (mixture of isomers), 0.014 µM.
The compound `COc1cc2c(cc1OC)C(c1ccccc1)N(C(=O)[C@H](O)[C@@H](O)C(=O)N[C@H](C)c1ccc(-n3cccn3)cc1)CC2` (mixture of isomers) came in with a Ki in data set [2] of 0.0009 µM. In addition, the exposure (AUC) at 6 h in data set [3] turned out to be 1.24 µM·h.
As to `CNc1nc(C2(C)CCCN2C(=O)[C@H](O)[C@@H](O)C(=O)N[C@H](C)c2ccc(-n3cccn3)cc2)cs1` (mixture of isomers), in data set [2], the affinity corresponds to a Ki of 0.009 µM. The same compound gave an AUC at 6 h in data set [3] of 2.44 µM·h. The compound further gave an IC50 in data set [1] of 13.8 µM.

For the origin of these results see ChEMBL document CHEMBL1770127, “2-(2-Aminothiazol-4-yl)pyrrolidine-based tartrate diamides as potent, selective and orally bioavailable TACE inhibitors” (Bioorg Med Chem Lett, 2011).
